Results reported in the CheMixHub viscosity set.

Assay: xn = mol fraction of the nth substance listed

CCC[NH2+]CCO.O=C([O-])c1ccccc1O + O
100 kPa, x2 = 0.14
Conditions	viscosity [mPa·s]
298 K	376.1
303 K	261.8
313 K	136.8
323 K	78.08

CCCCC + CCCCCCCCC
298.15 K, 101.33 kPa
Conditions	viscosity [mPa·s]
x1 = 0.0925	0.611
x1 = 0.1995	0.5548
x1 = 0.308	0.5016
x1 = 0.403	0.4556
x1 = 0.4861	0.4179
x1 = 0.6016	0.3691
x1 = 0.702	0.3268
x1 = 0.8033	0.2892
x1 = 0.904	0.2538

C1CCCCCCC1 + Cc1cccc(C)c1
viscosity [mPa·s], 101 kPa
Conditions	x2 = 0.1149	x2 = 0.1922	x2 = 0.2902	x2 = 0.412	x2 = 0.4831	x2 = 0.6078	x2 = 0.6874	x2 = 0.7916	x2 = 0.9058
308.15 K	1.376	1.182	1.004	0.8506	0.7816	0.6836	0.64	0.5877	0.5525
313.15 K	1.266	1.085	0.9357	0.7866	0.734	0.6372	0.6046	0.5645	0.5202

CCCCC + CCO
298.15 K, 101.33 kPa
Conditions	viscosity [mPa·s]
x2 = 0.0673	0.245
x2 = 0.1351	0.255
x2 = 0.2366	0.288
x2 = 0.3031	0.302
x2 = 0.4034	0.347
x2 = 0.5262	0.425
x2 = 0.6339	0.521
x2 = 0.7315	0.634
x2 = 0.8097	0.742
x2 = 0.9174	0.927

OC1CCCCC1 + COCCO
303.15 K, 101.3 kPa
Conditions	viscosity [mPa·s]
x2 = 0.135	31.36
x2 = 0.232	23.64
x2 = 0.3144	17.36
x2 = 0.4389	9.281
x2 = 0.4908	6.609
x2 = 0.5515	4.075
x2 = 0.9188	0.811

CCC(N)=O + O
298.15 K, 101 kPa
Conditions	viscosity [mPa·s]
x1 = 0.003097	0.919
x1 = 0.0145	1.025
x1 = 0.03165	1.188
x1 = 0.06563	1.536
x1 = 0.1487	3.03
x1 = 0.3724	5.98
